# In patent US12391737B2, “Soluble NPY2 receptor agonists” (Boehringer Ingelheim International GmbH, priority 2020, dated 2025):
# What was measured:
# [1] = target: T1, human NPY5 receptor (hY5R) (Homo sapiens, UniProt Q15761); assay: HTRF cAMP Gi assay, hY5R
# T1 sequence (Q15761 1-445): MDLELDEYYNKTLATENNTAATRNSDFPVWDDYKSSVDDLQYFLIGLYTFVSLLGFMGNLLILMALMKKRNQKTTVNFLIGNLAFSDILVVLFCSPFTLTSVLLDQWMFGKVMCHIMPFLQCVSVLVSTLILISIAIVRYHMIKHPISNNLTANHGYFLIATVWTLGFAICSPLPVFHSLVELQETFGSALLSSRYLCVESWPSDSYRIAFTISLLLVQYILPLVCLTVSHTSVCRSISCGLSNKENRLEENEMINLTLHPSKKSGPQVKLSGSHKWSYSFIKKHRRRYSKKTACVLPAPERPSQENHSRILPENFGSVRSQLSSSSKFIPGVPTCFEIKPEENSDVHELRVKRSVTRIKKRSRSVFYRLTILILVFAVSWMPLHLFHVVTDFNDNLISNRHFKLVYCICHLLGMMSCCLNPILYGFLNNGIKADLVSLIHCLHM
# [2] = target: T2, Human Neuropeptide Y2 Receptor (Homo sapiens, UniProt P49146); assay: Activity (RLB binding) after incubation in solutions at different pH values
# T2 construct: purchased CHEMICON HTS066M
# T2 sequence (P49146 1-381): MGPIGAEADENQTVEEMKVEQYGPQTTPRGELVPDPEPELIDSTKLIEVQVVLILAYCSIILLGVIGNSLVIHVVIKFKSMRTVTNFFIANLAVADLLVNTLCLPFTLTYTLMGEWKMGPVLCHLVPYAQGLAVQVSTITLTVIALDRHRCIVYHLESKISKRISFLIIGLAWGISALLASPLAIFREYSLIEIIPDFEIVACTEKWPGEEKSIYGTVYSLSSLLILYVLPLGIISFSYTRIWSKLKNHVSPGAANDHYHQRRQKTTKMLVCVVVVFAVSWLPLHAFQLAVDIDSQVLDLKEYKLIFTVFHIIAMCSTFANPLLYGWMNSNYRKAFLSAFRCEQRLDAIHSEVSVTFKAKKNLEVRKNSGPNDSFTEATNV
# Method: The filtration RLB assay was carried out in 96-well plates in a final volume of 100 μl per well. Freeze-dried test peptides were dissolved in 100% dimethyl sulfoxide (DMSO) to stock solutions of 1 mM and serial dilutions were performed in assay buffer (50 mM HEPES, 5 mM MgCl2, 1 mM CaCl2, pH 7.4) containing 0.2% ovalbumin. […] Next, 80 μL membranes (HTS066M, ChemiSCREEN™ Human Neuropeptide Y2 Receptor Membrane Preparation, CHEMICON) were added to each well to give a final protein concentration of 0.5 μg/well. The plates were sealed and incubated at room temperature for 2 hours in a plate shaker set at 400 rpm. The incubation was stopped by vacuum filtration onto 0.5% polyethylene amine (PE) presoaked GF/C filters using a 96-well FilterMate™ harvester (Perkin Elmer) followed by four washes with 300 μl/well ice-cold wash buffer (50 mM HEPES, 500 mM NaCl, pH7.4). Filter plates were then dried for 60 min at room temperature and the bottom of the plates was sealed with backing tape UniFilter-96. Finally, 50 μl/well scintillation counter cocktail (Microscint20, Packard) was added and the radioactivity was counted in the Packard TopCount NXT scintillation counter. IC50 values (the half maximal inhibitory concentration of the agonist) were calculated by nonlinear regression analysis of sigmoidal dose-response curves.
# The peptide was (partially) dissolved by shaking the filter unit horizontally at approx. 400 rpm for 2 hours at room temperature. The sample was filtered to remove any insoluble particles.
# Solubility determination = conditions: for Sol6: pH 6; for Sol7: pH 7
# How it was run: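 First, TFA-salt peptide was added to 0.1 M sodium diphosphate (pH 6.4 or 7.0) to 10 mg/ml and shaken 2 h at room temperature. Next, insoluble material was filtered off. Finally, filtrate and control, each 1 mg/ml in 50% acetonitrile, were compared by reversed-phase chromatography.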
# [3] = target: T3, human NPY1 receptor (hY1R) (Homo sapiens, UniProt P25929); assay: HTRF cAMP Gi assay, hY1R; assay type: cell-based; conditions: CHO-K1 cells
# T3 construct: expressed in transfected cells; host or cells: CHO-K1
# T3 sequence (P25929 1-384): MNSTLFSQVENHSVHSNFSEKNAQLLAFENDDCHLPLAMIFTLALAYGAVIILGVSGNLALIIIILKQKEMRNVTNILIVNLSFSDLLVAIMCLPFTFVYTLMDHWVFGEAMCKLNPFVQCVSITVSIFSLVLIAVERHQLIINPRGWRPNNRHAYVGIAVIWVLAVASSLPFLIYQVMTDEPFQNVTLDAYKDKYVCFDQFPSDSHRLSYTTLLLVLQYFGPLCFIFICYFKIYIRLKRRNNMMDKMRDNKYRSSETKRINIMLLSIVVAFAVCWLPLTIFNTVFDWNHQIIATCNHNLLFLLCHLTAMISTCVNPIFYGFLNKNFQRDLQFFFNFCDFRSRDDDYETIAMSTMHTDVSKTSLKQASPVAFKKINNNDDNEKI
# Method: Briefly, the production of intracellular cAMP will generate a competition between unlabeled cAMP and exogenously added d2-cAMP for anti-cAMP antibodies conjugated to cryptate. CHO-K1 cells stably expressing the human NPY1, NPY2, NPY4 and NPY5 receptors were used with the cells brought to life from a frozen stock immediately before assay performance. 2000 cells per well were applied for all four NPY receptor subtype assays. A 384-well format was used applying a total volume of 20 μl using 5 μl cells, 2.5 μl peptide agonist, 2.5 μl forskolin and 5 μl of each of the fluorophores. […] Concentration-response evaluation of compounds was performed with 11 concentrations of agonist peptides (covering 3 decades). EC50 values were calculated by nonlinear regression using sigmoid concentration-response with variable slope.
# [4] = target: T4, human NPY4 receptor (hY4R) (Homo sapiens, UniProt P50391); assay: HTRF cAMP Gi assay, hY4R; assay type: cell-based; conditions: CHO-K1 cells
# T4 construct: expressed in transfected cells; host or cells: CHO-K1
# T4 sequence (P50391 whole entry): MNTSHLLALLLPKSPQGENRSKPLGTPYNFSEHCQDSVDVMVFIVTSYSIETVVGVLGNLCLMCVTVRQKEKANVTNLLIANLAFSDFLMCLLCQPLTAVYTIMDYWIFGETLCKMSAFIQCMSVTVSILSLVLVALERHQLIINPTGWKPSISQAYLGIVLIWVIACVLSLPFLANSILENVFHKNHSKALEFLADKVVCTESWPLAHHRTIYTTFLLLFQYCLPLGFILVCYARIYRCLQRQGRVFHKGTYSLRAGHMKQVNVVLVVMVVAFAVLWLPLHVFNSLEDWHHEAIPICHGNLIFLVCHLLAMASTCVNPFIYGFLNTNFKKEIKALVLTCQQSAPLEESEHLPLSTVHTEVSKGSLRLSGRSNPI
# [5] = target: T5, human NPY2 receptor (hY2R) (Homo sapiens, UniProt P49146); assay: HTRF cAMP Gi assay, hY2R
# T5 sequence (P49146 1-381): T2 sequence (P49146 1-381)
# Text: The Homogenous Time Resolved fluorescence (HTRF) technology optimized for Gi coupled receptors has thoroughly been described in Cisbio cAMP Gi kit manual. Briefly, the production of intracellular cAMP will generate a competition between unlabeled cAMP and exogenously added d2-cAMP for anti-cAMP antibodies conjugated to cryptate. CHO-K1 cells stably expressing the human NPY1, NPY2, NPY4 and NPY5 receptors were used with the cells brought to life from a frozen stock immediately before assay performance. 2000 cells per well were applied for all four NPY receptor subtype assays. A 384-well format was used applying a total volume of 20 μl using 5 μl cells, 2.5 μl peptide agonist, 2.5 μl forskolin and 5 μl of each of the fluorophores. […] Concentration-response evaluation of compounds was performed with 11 concentrations of agonist peptides (covering 3 decades). EC50 values were calculated by nonlinear regression using sigmoid concentration-response with variable slope.
# [6] = target: T2, Human Neuropeptide Y2 Receptor; assay: Radioligand binding competition assay (RLB)
# How it was run: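 Filtration binding assay on human Y2 receptor membrane preparation, 0.5 μg protein per well, in 50 mM HEPES pH 7.4 containing 5 mM MgCl2, 1 mM CaCl2 and 0.2% ovalbumin. Plates shake 2 h at room temperature before harvest and scintillation counting.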
# [7] = apparent Ki of filtrate after incubation at pH7.1-7.2, assumed 10 mg/ml, read-out: RLB 7 (pH7.1-7.2)
# [8] = apparent Ki of filtrate after incubation at pH8.1-8.2, assumed 10 mg/ml, read-out: RLB 8 (pH8.1-8.2)
# [9] = Table 3, 125I-PYY(1-36) competition, read-out: Ki
EC50 [1] [nM],"Ki [2, 7] [nM]","Ki [2, 8] [nM]",Sol6 (Solubility determination) [mg/mL],Sol7 (Solubility determination) [mg/mL],EC50 [3] [nM],EC50 [4] [nM],EC50 [5] [nM],"Ki [6, 9] [nM]","Ki ([2]; apparent Ki of filtrate after incubation at pH6.1-6.2, assumed 10 mg/ml, read-out: RLB 6 (pH6.1-6.2)) [nM]","Ki ([6]; Table 8, DMSO stock, read-out: hY2R RLB Ki (nM) DMSO) [nM]",SMILES
> 5000,7.3,3.8,8.5,8.2,> 5000,> 5000,,,,,"CC[C@H](C)[C@H](NC(=O)[C@H](Cc1ccc(O)cc1)NC(=O)[C@H](Cc1ccc(O)cc1)NC(=O)[C@H](CCCNC(=N)N)NC(=O)[C@H](CCC(N)=O)NC(=O)[C@@H](NC(=O)[C@H](CCC(=O)O)NC(=O)[C@H](CCC(=O)O)NC(=O)[C@@H]1CCCN1C(=O)[C@H](CO)NC(=O)[C@H](C)NC(=O)[C@H](CC(=O)O)NC(=O)[C@H](C)NC(=O)[C@H](CCC(=O)O)NC(=O)[C@@H]1CCCN1C(=O)[C@H](CCCCNC(=O)CCCCCNC(=O)CC[C@H](NC(=O)CCCCCCCCCCCCCCCCC(=O)O)C(=O)O)NC(=O)[C@H](CCC(=O)O)NC(=O)[C@@H]1CCCN1C(=O)[C@H](C)NC(=O)CC(C)C)[C@@H](C)CC)C(=O)N[C@@H](C)C(=O)N[C@@H](CC(C)C)C(=O)N[C@@H](CCCNC(=N)N)C(=O)N[C@@H](Cc1c[nH]cn1)C(=O)N[C@@H](Cc1ccc(O)cc1)C(=O)N[C@@H](Cc1ccc(O)cc1)C(=O)N[C@@H](CC(N)=O)C(=O)N[C@@H](Cc1c[nH]c2ccccc12)C(=O)N[C@@H](CC(C)C)C(=O)N[C@H](C(=O)N[C@@H](CCCNC(=N)N)C(=O)N[C@@H](CCC(N)=O)C(=O)N[C@@H](CCCNC(=N)N)C(=O)N[C@@H](Cc1ccc(O)cc1)C(N)=O)[C@@H](C)O [Compound 40, N{alpha-4}-(3-methylbutanoyl)-N{epsilon-7}-(6-[(4S)-4-carboxy-4-(17-carboxyheptadecanamido)butanamido]hexanoyl)[4A,7K,9E,10A,17I,18Q,22I,23A,28Y,30W,31L]-hPYY(4-36)]"
> 5000,,,8.7,9.6,> 5000,> 5000,0.352,3.07,,,"CC(C)CC(=O)N[C@@H](C)C(=O)N1CCC[C@H]1C(=O)N[C@@H](CCC(=O)O)C(=O)N[C@@H](CCCCNC(=O)CCCCCNC(=O)CC[C@H](NC(=O)CCCCCCCCCCCCCCCCC(=O)O)C(=O)O)C(=O)N1CCC[C@H]1C(=O)N[C@@H](CCC(=O)O)C(=O)N[C@@H](CCC(=O)O)C(=O)N[C@@H](CC(=O)O)C(=O)N[C@@H](C)C(=O)N[C@@H](CCC(=O)O)C(=O)N1CCC[C@H]1C(=O)N[C@@H](CCC(=O)O)C(=O)N[C@@H](CCC(=O)O)C(=O)N[C@H](C(=O)N[C@@H](CCC(N)=O)C(=O)N[C@@H](CCCNC(=N)N)C(=O)N[C@@H](Cc1ccc(O)cc1)C(=O)N[C@@H](Cc1ccc(O)cc1)C(=O)N[C@H](C(=O)N[C@@H](CO)C(=O)N[C@@H](CC(C)C)C(=O)N[C@@H](CCCNC(=N)N)C(=O)N[C@@H](Cc1c[nH]cn1)C(=O)N[C@@H](Cc1ccc(O)cc1)C(=O)N[C@@H](Cc1ccc(O)cc1)C(=O)N[C@@H](CC(N)=O)C(=O)N[C@@H](Cc1c[nH]c2ccccc12)C(=O)N[C@@H](CC(C)C)C(=O)N[C@H](C(=O)N[C@@H](CCCNC(=N)N)C(=O)N[C@@H](CCC(N)=O)C(=O)N[C@@H](CCCNC(=N)N)C(=O)N[C@@H](Cc1ccc(O)cc1)C(N)=O)[C@@H](C)O)C(C)C)C(C)C [Compound 53, N{alpha-4}-(3-methylbutanoyl)-N{epsilon-7}-(6-[(4S)-4-carboxy-4-(17-carboxyheptadecanamido)butanamido]hexanoyl)-[4A,7K,9E,13E,17V,18Q,22V,28Y,30W,31L]-hPYY(4-36)]"
> 5000,4,5.7,9.4,9.3,> 5000,> 5000,,1.48,3.9,8.7,"CC[C@H](C)[C@H](NC(=O)[C@H](CCC(=O)O)NC(=O)[C@H](CCC(=O)O)NC(=O)[C@@H]1CCCN1C(=O)[C@@H](NC(=O)[C@H](C)NC(=O)[C@H](CC(=O)O)NC(=O)[C@H](CCC(=O)O)NC(=O)[C@H](CCC(=O)O)NC(=O)[C@@H]1CCCN1C(=O)[C@H](CCCCNC(=O)CCCCCNC(=O)CC[C@H](NC(=O)CCCCCCCCCCCCCCCCC(=O)O)C(=O)O)NC(=O)[C@H](CCC(=O)O)NC(=O)[C@@H]1CCCN1C(=O)[C@H](C)NC(=O)CC(C)C)[C@@H](C)O)C(=O)N[C@@H](CCC(N)=O)C(=O)N[C@@H](CCCNC(=N)N)C(=O)N[C@@H](Cc1ccc(O)cc1)C(=O)N[C@@H](Cc1ccc(O)cc1)C(=O)N[C@H](C(=O)N[C@@H](CO)C(=O)N[C@@H](CC(C)C)C(=O)N[C@@H](CCCNC(=N)N)C(=O)N[C@@H](Cc1c[nH]cn1)C(=O)N[C@@H](Cc1ccc(O)cc1)C(=O)N[C@@H](Cc1ccc(O)cc1)C(=O)N[C@@H](CC(N)=O)C(=O)N[C@@H](Cc1c[nH]c2ccccc12)C(=O)N[C@@H](CC(C)C)C(=O)N[C@H](C(=O)N[C@@H](CCCNC(=N)N)C(=O)N[C@@H](CCC(N)=O)C(=O)N[C@@H](CCCNC(=N)N)C(=O)N[C@@H](Cc1ccc(O)cc1)C(N)=O)[C@@H](C)O)C(C)C [Compound 176, N{alpha-4}-(3-methylbutanoyl)-N{epsilon-7}-(6-[(4S)-4-carboxy-4-(17-carboxyheptadecanamido)butanamido]hexanoyl)-[4A,7K,9E,13T,17I,18Q,22V,28Y,30W,31L]-hPYY(4-36)]"
